Measurements from PubChem BioAssay (NCI).
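Briefly, cells in 96-well plates were exposed to five compound concentrations for 48 h, and endpoints were estimated by linear interpolation. GI50 is the concentration that inhibits growth by half. The concentration for full growth arrest is given as TGI.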

What was measured:
Experiment in all cases: NCI-60 cell line screen, 48 h
[1] = system: CCRF-CEM leukemia
[2] = system: A549 NSCLC
[3] = system: KM12 colon
[4] = system: M14 melanoma
[5] = system: NCI-H522 lung
[6] = system: NCI/ADR-RES ovarian
[7] = system: HCT-15 colon
[8] = system: MCF7 breast
[9] = system: UACC-257 melanoma
[10] = system: IGROV1 ovarian
[11] = system: SF-268 CNS
[12] = system: OVCAR-3 ovarian
[13] = system: PC-3 prostate
[14] = system: TK-10 renal
[15] = system: UACC-62 melanoma
[16] = system: A498 renal
[17] = system: SK-MEL-28 melanoma
[18] = system: HL-60(TB) leukemia
[19] = system: OVCAR-8 ovarian
[20] = system: SK-OV-3 ovarian
[21] = system: HT29 colon
[22] = system: MDA-MB-231 breast
[23] = system: T-47D breast
[24] = system: SW-620 colon
[25] = system: EKVX NSCLC
[26] = system: RXF 393 renal
[27] = system: OVCAR-4 ovarian
[28] = system: HOP-92 NSCLC
[29] = system: RPMI-8226 leukemia
[30] = system: NCI-H460 lung
[31] = system: ACHN renal
[32] = system: NCI-H226 lung
[33] = system: HCT-116 colon
[34] = system: SN12C renal
[35] = system: HCC-2998 colon
[36] = system: SNB-19 CNS
[37] = system: OVCAR-5 ovarian
[38] = system: UO-31 renal
[39] = system: COLO 205 colon
[40] = system: SK-MEL-2 melanoma
[41] = system: SF-539 CNS
[42] = system: HOP-62 NSCLC
[43] = system: SR leukemia
[44] = system: BT-549 breast
[45] = system: MOLT-4 leukemia
[46] = system: MALME-3M melanoma
[47] = system: DU-145 prostate

`Cc1cc(O)c(=O)cc2c1C[C@H]1CC(C)(C)/C=C/C[C@]3(C)Oc4cc(=O)c(O)cc(C)c4C[C@H]3C[C@H](O)[C@@]1(C)O2` was tested, and the GI50 [1] was 10.1 nM, the TGI [1] was > 16700 nM and the GI50 [2] was 6.97 nM. For the same compound, the TGI [2] was > 16700 nM, the GI50 [3] was 7.17 nM and the TGI [3] was > 16700 nM. It also gave a GI50 [4] of 11.7 nM, a TGI [4] of 140 nM and a GI50 [5] of 7.68 nM. The TGI [5] was 51.7 nM, the GI50 [6] was 8.45 nM and the GI50 [7] was 2.81 nM. The TGI [7] was > 16700 nM, the GI50 [8] was 3.81 nM and the TGI [8] was > 16700 nM. For the same compound, the GI50 [9] was 13.5 nM, the TGI [9] was 84.1 nM and the GI50 [10] was 16.3 nM. The TGI [10] was > 16700 nM, the GI50 [11] was 7.71 nM and the TGI [11] was > 16700 nM. For the same compound, the GI50 [12] was 12 nM, the TGI [12] was > 16700 nM and the GI50 [13] was 5.38 nM. For the same compound, the TGI [13] was > 16700 nM, the GI50 [14] was 8.98 nM and the GI50 [15] was 27.2 nM. For the same compound, the TGI [15] was 85.4 nM, the GI50 [16] was 25.9 nM and the TGI [16] was 80.9 nM. For the same compound, the GI50 [17] was 15.6 nM, the TGI [17] was > 16700 nM and the GI50 [18] was 20.2 nM. For the same compound, the TGI [18] was 128 nM, the GI50 [19] was 6.1 nM and the TGI [19] was > 16700 nM. The GI50 [20] was 10.1 nM, the TGI [20] was 95.2 nM and the GI50 [21] was 3.1 nM. For the same compound, the TGI [21] was > 16700 nM, the GI50 [22] was 19.9 nM and the TGI [22] was > 16700 nM. For the same compound, the GI50 [23] was 2.52 nM, the TGI [23] was 16.3 nM and the GI50 [24] was 2.91 nM. For the same compound, the TGI [24] was > 16700 nM, the GI50 [25] was 11 nM and the GI50 [26] was 10.5 nM. The TGI [26] was 142 nM, the GI50 [27] was 12 nM and the TGI [27] was > 16700 nM. For the same compound, the GI50 [28] was 5.54 nM, the TGI [28] was 112 nM and the GI50 [29] was 8.31 nM. The TGI [29] was > 16700 nM, the GI50 [30] was < 1.67 nM and the TGI [30] was 17.3 nM. The GI50 [31] was 6.01 nM, the TGI [31] was 50.4 nM and the GI50 [32] was 24 nM. The GI50 [33] was < 1.67 nM, the TGI [33] was > 16700 nM and the GI50 [34] was 5.11 nM. The TGI [34] was > 4910 nM, the GI50 [35] was 20.3 nM and the TGI [35] was > 16700 nM. For the same compound, the GI50 [36] was < 1.67 nM, the TGI [36] was > 16700 nM and the GI50 [37] was 13.6 nM. For the same compound, the TGI [37] was > 16700 nM, the GI50 [38] was 7.73 nM and the TGI [38] was 53.2 nM. For the same compound, the GI50 [39] was 5.71 nM, the TGI [39] was 25.8 nM and the GI50 [40] was 8.83 nM. It also gave a TGI [40] of 496 nM, a GI50 [41] of 10.4 nM and a TGI [41] of 71.4 nM. The GI50 [42] was 5.72 nM, the TGI [42] was 40.1 nM and the GI50 [43] was 14.9 nM. The TGI [43] was > 16700 nM, the GI50 [44] was 12.5 nM and the TGI [44] was > 16700 nM. The GI50 [45] was 7.93 nM, the TGI [45] was > 16700 nM and the GI50 [46] was 6.36 nM. The TGI [46] was 32 nM, the GI50 [47] was 5.61 nM and the TGI [47] was > 16700 nM.
